From patent publication US20250099474A1 (priority 2022, published 2025)
Where two headings read alike, the source gives them in different places.

How the values were obtained:
SARS-CoV-2 [1] = format: in vivo, human; details: Phase 3 Part, mild/moderate patients, ITT, onset to randomization less than 72 hours; for Time to resolution of 12 COVID-19 symptoms: Maximum value / Time to resolution of 14 COVID-19 symptoms: Maximum value / Time to resolution of five COVID-19 symptoms: Maximum value: +: includes censored data
Protocol: The primary endpoint of Phase 3 Part was the time to resolution of five COVID-19 symptoms in mild/moderate SARS-CoV-2-infected patients, and the efficacy was verified by evaluation of the five COVID-19 symptoms in four grades (0: none, 1: mild, 2: moderate, 3: severe) by the patients themselves.
(§1) The 750/250 mg group received 750 mg on Day 1 as a loading dose and 250 mg on Days 2 to 5 as a maintenance dose.
The primary efficacy endpoint of Phase 3 Part for mild/moderate SARS-CoV-2-infected patients was the time to resolution of the five COVID-19 symptoms.
Existing symptoms that existed before the onset of COVID-19 and were determined by the subject to be worsening at the baseline (pre-administration test) time point had to be improved […] from the severity at the baseline time point. • Severity at baseline was “severe”→“moderate”, “mild”, or “none” • Severity at baseline was “moderate”→“mild”, or “none” • Severity at baseline was “mild”→[…] “none” • Existing symptoms that existed before the onset of COVID-19 and were determined by the subject not to be worsening at the baseline (pre-administration test) time point had to be maintained or improved from the severity at the baseline time point. • Severity at baseline was “severe”->“severe”, “moderate”, “mild”, or “none” • Severity at baseline was “moderate”->“moderate”, “mild”, or “none” • Severity at baseline was “mild”→“mild”, or “none” • Regarding symptoms other than the above, that is, symptoms that were not present before the onset of COVID-19 and developed at or after the baseline (pre-administration test) time point, such symptoms had to be eliminated. • Severity at baseline was “severe”, “moderate”, or “mild”→“none”
As the key secondary analysis of the primary endpoint, the same analysis as the primary analysis was performed for the population of the mild/moderate SARS-CoV-2-infected patients in the ITT population.

SARS-CoV-2 [2] = details: mouse, in vivo
SARS-CoV-2 [3] = assay: Phase 2/3 study, Phase 2a Part: COVID-19 symptom score and exacerbation (Ordinal scale); format: in vivo, human; details: mild/moderate patients
Protocol: as §1

[4] = Phase 2/3 study: frequency of adverse events; format: in vivo, human; details: for Adverse events leading to discontinuation of administration, causally related to the investigational new drug: recovering or recovered after discontinuation
[5] = 750/250 mg group, 330 cases analyzed

For `Cn1cnc(Cn2c(=O)[nH]/c(=N\c3cc4cn(C)nc4cc3Cl)n(Cc3cc(F)c(F)cc3F)c2=O)n1` [(6E)-6-[(6-chloro-2-methyl-2H-indazol-5-yl)imino]-3-[(1-methyl-1H-1,2,4-triazol-3-yl)methyl]-1-[(2,4,5-trifluorophenyl)methyl]-1,3,5-triazinane-2,4-dione], the “Time to resolution of five COVID-19 symptoms: Number of events” value (SARS-CoV-2 [1]; 375/125 mg group, 336 cases analyzed) was 254, the “Time to resolution of 12 COVID-19 symptoms: Maximum value” (SARS-CoV-2 [1]; 375/125 mg group) was 489.1 h and the “Time to resolution of 14 COVID-19 symptoms: Maximum value” (SARS-CoV-2 [1]; 375/125 mg group) was 489.1 h. For the same molecule, the “Time to resolution of five COVID-19 symptoms: Maximum value” (SARS-CoV-2 [1]; 375/125 mg group) was 489.1 h, the “Time to resolution of 12 COVID-19 symptoms: 25% point” value (SARS-CoV-2 [1]; 750/250 mg group) was 114.2 h and the “Time to resolution of 12 COVID-19 symptoms: 75% point” value (SARS-CoV-2 [1]; 750/250 mg group) was 422.7 h. The “Time to resolution of 12 COVID-19 symptoms: Difference of RMST (vs placebo)” value (SARS-CoV-2 [1]; 750/250 mg group) was -20.8 h, the “Time to resolution of 12 COVID-19 symptoms: Difference of median value (vs placebo)” value (SARS-CoV-2 [1]; 750/250 mg group) was -28.3 h and the “Time to resolution of 12 COVID-19 symptoms: Kaplan-Meier median value” (SARS-CoV-2 [1]; 750/250 mg group) was 184.9 h. The “Time to resolution of 12 COVID-19 symptoms: Minimum value” (SARS-CoV-2 [1]; 750/250 mg group) was 9.4 h, the “Time to resolution of 12 COVID-19 symptoms: Number of events (value in parentheses)” value (SARS-CoV-2 [1]; 750/250 mg group) was “(78.2)” and the “Time to resolution of 12 COVID-19 symptoms: Restricted mean survival time during 21 days (RMST)” value (SARS-CoV-2 [1]; 750/250 mg group) was 249.9 h. The “Time to resolution of 14 COVID-19 symptoms: 25% point” value (SARS-CoV-2 [1]; 750/250 mg group) was 117.1 h, the “Time to resolution of 14 COVID-19 symptoms: 75% point” value (SARS-CoV-2 [1]; 750/250 mg group) was 431.6 h and the “Time to resolution of 14 COVID-19 symptoms: Difference of RMST (vs placebo)” value (SARS-CoV-2 [1]; 750/250 mg group) was -22.0 h. The “Time to resolution of 14 COVID-19 symptoms: Difference of median value (vs placebo)” value (SARS-CoV-2 [1]; 750/250 mg group) was -41.5 h, the “Time to resolution of 14 COVID-19 symptoms: Kaplan-Meier median value” (SARS-CoV-2 [1]; 750/250 mg group) was 190.3 h and the “Time to resolution of 14 COVID-19 symptoms: Minimum value” (SARS-CoV-2 [1]; 750/250 mg group) was 9.4 h. The “Time to resolution of 14 COVID-19 symptoms: Number of events (value in parentheses)” value (SARS-CoV-2 [1]; 750/250 mg group) was “(77.3)”, the “Time to resolution of 14 COVID-19 symptoms: Restricted mean survival time during 21 days (RMST)” value (SARS-CoV-2 [1]; 750/250 mg group) was 256.0 h and the “Time to resolution of five COVID-19 symptoms: 25% point” value (SARS-CoV-2 [1]; 750/250 mg group) was 96.7 h. For the same molecule, the “Time to resolution of five COVID-19 symptoms: 75% point” value (SARS-CoV-2 [1]; 750/250 mg group) was 360.9 h, the “Time to resolution of five COVID-19 symptoms: Difference of RMST (vs placebo)” value (SARS-CoV-2 [1]; 750/250 mg group) was -26.1 h and the “Time to resolution of five COVID-19 symptoms: Difference of median value (vs placebo)” value (SARS-CoV-2 [1]; 750/250 mg group) was -21.0 h. For the same molecule, the “Time to resolution of five COVID-19 symptoms: Kaplan-Meier median value” (SARS-CoV-2 [1]; 750/250 mg group) was 171.2 h, the “Time to resolution of five COVID-19 symptoms: Minimum value” (SARS-CoV-2 [1]; 750/250 mg group) was 9.4 h and the “Time to resolution of five COVID-19 symptoms: Number of events (value in parentheses)” value (SARS-CoV-2 [1]; 750/250 mg group) was “(79.6)”. For the same molecule, the “Time to resolution of five COVID-19 symptoms: Restricted mean survival time during 21 days (RMST)” value (SARS-CoV-2 [1]; 750/250 mg group) was 234.8 h, the “Time to resolution of five COVID-19 symptoms: Number of events” value (SARS-CoV-2 [1]; 750/250 mg group, 329 cases analyzed) was 262 and the “Time to resolution of 12 COVID-19 symptoms: Number of events” value (SARS-CoV-2 [1]; [5]) was 258. For the same molecule, the “Time to resolution of 14 COVID-19 symptoms: Number of events” value (SARS-CoV-2 [1]; [5]) was 255, the “Time to resolution of 12 COVID-19 symptoms: Maximum value” (SARS-CoV-2 [1]; 750/250 mg group) was 490.1 h and the “Time to resolution of 14 COVID-19 symptoms: Maximum value” (SARS-CoV-2 [1]; 750/250 mg group) was 490.1 h. The “Time to resolution of five COVID-19 symptoms: Maximum value” (SARS-CoV-2 [1]; 750/250 mg group) was 490.1 h, the “maximum plasma concentration (Cmax) in humans that reduces the virus titer by 2 log” value (SARS-CoV-2 [2]) was 14.1 μg/mL and the “maximum plasma concentration (Cmax) in humans that reduces the virus titer by 3 log” value (SARS-CoV-2 [2]) was 23.0 μg/mL. For the same molecule, the “Exacerbation rate (Ordinal scale deteriorated to 3 or more for the first time)” value (SARS-CoV-2 [3]; 375/125 mg group) was 0.0%, the “Number of exacerbations/number of cases to be analyzed” value (SARS-CoV-2 [3]; 375/125 mg group) was 0/13 and the “Change from baseline in total score of 12 COVID-19 symptoms compared to placebo group” value (SARS-CoV-2 [3]; 375/125 mg group and 750/250 mg group, all time points on Day 2 and thereafter, FIG. 6) was “tendency for the total score of the twelve COVID-19 symptoms to numerically improve”. The “Exacerbation rate (Ordinal scale deteriorated to 3 or more for the first time)” value (SARS-CoV-2 [3]; 750/250 mg group) was 0.0%, the “Number of exacerbations/number of cases to be analyzed” value (SARS-CoV-2 [3]; 750/250 mg group) was 0/12 and the “Adverse events leading to deaths” value ([4]; Phase 2a Part) was “no adverse events leading to deaths”. The “Deaths, serious adverse events, adverse events leading to discontinuation of administration” value ([4]; Phase 2a Part) was “no deaths, serious adverse events, or adverse events leading to discontinuation of administration”, the “Adverse events leading to the discontinuation of administration” value ([4]; Phase 2a Part, 375/125 mg group, both causally related to the investigational new drug) was “Two adverse events leading to the discontinuation of administration were observed” and the serious adverse events ([4]; Phase 2a Part, active drug group) was “not in the active drug group”. For the same molecule, the “Adverse events leading to deaths” value ([4]; Phase 3 Part) was “no adverse events leading to deaths”, the Serious adverse event ([4]; Phase 3 Part, 375/125 mg group, no causal relationship with the investigational new drug) was “observed in one case” and the “Adverse events leading to discontinuation of administration, causally related to the investigational new drug” value ([4]; Phase 3 Part, 375/125 mg group) was “eczema and emesis”. The “Adverse events leading to discontinuation of administration, causally related to the investigational new drug” value ([4]; Phase 3 Part, 750/250 mg group) was “rash (2 cases)”.
